Data on 51 compounds can be found in patent US20110130380A1, “Heteroaryl Kinase Inhibitors” (priority 2009, published 2011).

As usually defined, the pIC50 is −log10 of the IC50, conventionally taken in molar units. Read a low pIC50 as a high IC50.

In this experiment the target is Cdk9/cyclinT1 (Homo sapiens, UniProt P50750). Briefly: Cdk9/cyclinT1 IMAP Protocol (fluorescence polarization kinase assay). To be noted: Cdk9_cyclinT1_IC50, Table V; generated using one of the two Cdk9/cyclinT1 assays (IMAP or Alpha Screen), not stated which; ATP 6 uM. A general note: In fluorescence polarisation assays a small probe gives low polarisation when free and higher when bound to something large.

pIC50: −log10 of the molar value.

Cdk9/cyclinT1, sequence (P50750 whole entry): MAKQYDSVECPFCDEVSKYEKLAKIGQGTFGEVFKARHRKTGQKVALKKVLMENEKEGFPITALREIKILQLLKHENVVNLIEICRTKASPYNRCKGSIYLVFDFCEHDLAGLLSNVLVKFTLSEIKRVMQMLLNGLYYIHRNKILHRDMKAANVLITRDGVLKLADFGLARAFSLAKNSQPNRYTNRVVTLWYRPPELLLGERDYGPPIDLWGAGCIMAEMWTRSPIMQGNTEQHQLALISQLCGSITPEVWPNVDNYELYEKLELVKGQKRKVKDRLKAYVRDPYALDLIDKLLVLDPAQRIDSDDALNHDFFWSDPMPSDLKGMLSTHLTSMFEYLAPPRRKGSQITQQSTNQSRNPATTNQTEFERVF
Cdk9/cyclinT1, sequence (O60563 whole entry partner): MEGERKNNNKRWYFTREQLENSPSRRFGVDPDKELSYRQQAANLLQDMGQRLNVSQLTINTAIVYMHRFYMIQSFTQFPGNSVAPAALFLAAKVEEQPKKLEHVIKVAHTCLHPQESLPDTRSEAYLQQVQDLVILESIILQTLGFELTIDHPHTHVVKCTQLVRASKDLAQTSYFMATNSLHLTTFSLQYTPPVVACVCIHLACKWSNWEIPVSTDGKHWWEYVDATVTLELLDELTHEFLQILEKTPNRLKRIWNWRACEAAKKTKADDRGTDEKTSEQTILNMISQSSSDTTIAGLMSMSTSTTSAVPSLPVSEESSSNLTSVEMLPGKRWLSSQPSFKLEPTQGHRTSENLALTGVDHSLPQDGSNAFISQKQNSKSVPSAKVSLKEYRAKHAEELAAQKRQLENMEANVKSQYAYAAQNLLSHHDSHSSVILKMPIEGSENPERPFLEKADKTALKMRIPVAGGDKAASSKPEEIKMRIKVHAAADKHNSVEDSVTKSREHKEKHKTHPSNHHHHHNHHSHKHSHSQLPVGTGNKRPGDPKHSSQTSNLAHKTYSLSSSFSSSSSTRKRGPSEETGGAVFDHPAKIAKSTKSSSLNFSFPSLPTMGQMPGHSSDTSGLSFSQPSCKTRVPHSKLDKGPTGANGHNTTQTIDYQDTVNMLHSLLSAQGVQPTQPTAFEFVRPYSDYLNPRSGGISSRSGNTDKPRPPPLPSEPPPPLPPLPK

Compound `O=C(Nc1cc(-c2cccc(NCC3CCOCC3)n2)c(Cl)cn1)C1(F)CCCNC1` (single isomer, unassigned) [Example 117] showed a pIC50 of 6.64. `O=C(Nc1cc(-c2cccc(NCC3CCOCC3)n2)c(Cl)cn1)C1(F)CCCNC1` (single isomer, unassigned) [Example 118] gave a pIC50 of 6.67. In the case of `C[C@@H]1CNC[C@H](C(=O)Nc2cc(-c3cccc(NCC4CCOCC4)n3)c(Cl)cn2)C1` (single isomer, unassigned) [Example 128] it was 9.00; in that of `C[C@H]1CNC[C@@H](C(=O)Nc2cc(-c3cccc(NCC4CCOCC4)n3)c(Cl)cn2)C1` (single isomer, unassigned) [Example 129], 7.89; in that of `CC1(C)C[C@H](CNc2cccc(-c3cc(NC(=O)[C@H]4CNCCO4)ncc3Cl)n2)CCO1` (single isomer, unassigned) [Example 130], above 8.10.

Turning to `CC1(C)C[C@@H](CNc2cccc(-c3cc(NC(=O)[C@H]4CNCCO4)ncc3Cl)n2)CCO1` (single isomer, unassigned) [Example 131], the pIC50 was 7.42.

As to `C[C@H]1CC[C@@H](C(=O)Nc2cc(-c3cccc(NCC4CCOCC4)n3)c(Cl)cn2)CN1` (single isomer, unassigned) [Example 141], the negative logarithm of the IC50 (pIC50) is above 8.10.

`C[C@@H]1CC[C@H](C(=O)Nc2cc(-c3cccc(NCC4CCOCC4)n3)c(Cl)cn2)CN1` (single isomer, unassigned) [Example 142]: the pIC50 is 6.82.

The compound `C[C@@H]1CC[C@@H](C(=O)Nc2cc(-c3cccc(NCC4CCOCC4)n3)c(Cl)cn2)CN1` (single isomer, unassigned) [Example 146] had a pIC50 of 9.00. Compound `C[C@H]1CC[C@H](C(=O)Nc2cc(-c3cccc(NCC4CCOCC4)n3)c(Cl)cn2)CN1` (single isomer, unassigned) [Example 147] had a pIC50 of 8.30. Turning to `CC1(C)C[C@@H](CNc2ccc(Cl)c(-c3cc(NC(=O)[C@H]4CNCCO4)ncc3Cl)n2)CCO1` (single isomer, unassigned) [Example 155], the pIC50 is 9.00. Compound `CC1(C)C[C@H](CNc2ccc(Cl)c(-c3cc(NC(=O)[C@H]4CNCCO4)ncc3Cl)n2)CCO1` (single isomer, unassigned) [Example 156] gave a pIC50 of 8.40.

`O=C(Nc1cc(-c2cccc(NCC3CCOCC3)n2)c(Cl)cn1)[C@H]1CNC[C@H](C(F)(F)F)C1` (single isomer, unassigned) [Example 162] showed a pIC50 of 8.00. Turning to `O=C(Nc1cc(-c2cccc(NCC3CCOCC3)n2)c(Cl)cn1)[C@@H]1CNC[C@@H](C(F)(F)F)C1` (single isomer, unassigned) [Example 163], the pIC50 was 6.89. As for `CC(C)S(=O)(=O)N1CCC[C@H](C(=O)Nc2cc(-c3nc(NC[C@@H]4CCOC(C)(C)C4)ccc3Cl)c(Cl)cn2)C1` (single isomer, unassigned) [Example 172], the pIC50 was 9.00. In the case of `CC(C)S(=O)(=O)N1CCC[C@H](C(=O)Nc2cc(-c3nc(NC[C@H]4CCOC(C)(C)C4)ccc3Cl)c(Cl)cn2)C1` (single isomer, unassigned) [Example 173] it was 9.00; in that of `COC(=O)N1CCC[C@H](C(=O)Nc2cc(-c3nc(NC[C@@H]4CCOC(C)(C)C4)ccc3Cl)c(Cl)cn2)C1` (single isomer, unassigned) [Example 174], 9.00. Then `COC(=O)N1CCC[C@H](C(=O)Nc2cc(-c3nc(NC[C@H]4CCOC(C)(C)C4)ccc3Cl)c(Cl)cn2)C1` (single isomer, unassigned) [Example 175], with 8.70. In turn, `O=C(Nc1cc(-c2cccc(NCC3CCOCC3)n2)c(Cl)cn1)[C@H]1CNC[C@@H](C(F)(F)F)C1` (single isomer, unassigned) [Example 182] had a pIC50 of 8.40. Then `O=C(Nc1cc(-c2cccc(NCC3CCOCC3)n2)c(Cl)cn1)[C@@H]1CNC[C@H](C(F)(F)F)C1` (single isomer, unassigned) [Example 183], with 7.26; and `C[C@@H]1CC[C@@H](C(=O)Nc2cc(-c3ccc(F)c(NCC4CCOCC4)n3)c(Cl)cn2)CN1` (single isomer, unassigned) [Example 189], with 9.00; and `C[C@H]1CC[C@H](C(=O)Nc2cc(-c3ccc(F)c(NCC4CCOCC4)n3)c(Cl)cn2)CN1` (single isomer, unassigned) [Example 190], with 8.52. Then `C[C@@H]1CC[C@@H](C(=O)Nc2cc(-c3ccc(F)c(NCC4CCOCC4)n3)c(Cl)cn2)CN1C` (single isomer, unassigned) [Example 196], with 7.77; and `C[C@H]1CC[C@H](C(=O)Nc2cc(-c3ccc(F)c(NCC4CCOCC4)n3)c(Cl)cn2)CN1C` (single isomer, unassigned) [Example 197], with 8.40; and `CO[C@@H]1CNC[C@H](C(=O)Nc2cc(-c3cccc(NCC4CCOCC4)n3)c(Cl)cn2)C1` (single isomer, unassigned) [Example 211], with 8.70. In turn, `CO[C@H]1CNC[C@@H](C(=O)Nc2cc(-c3cccc(NCC4CCOCC4)n3)c(Cl)cn2)C1` (single isomer, unassigned) [Example 212] showed a pIC50 of 6.77. `O=C(Nc1cc(-c2nc(NCC3CCOCC3)ccc2Cl)c(Cl)cn1)C1CNCCOC1` (single isomer, unassigned) [Example 213] showed a pIC50 of 8.70. Regarding `O=C(Nc1cc(-c2nc(NCC3CCOCC3)ccc2Cl)c(Cl)cn1)C1CNCCOC1` (single isomer, unassigned) [Example 214], the pIC50 was 9.00.

`CC1(C)C[C@H](CNc2nc(-c3cc(NC(=O)[C@@H]4CCCNC4)ncc3Cl)ccc2F)CCO1` (single isomer, unassigned) [Example 215] gave a pIC50 of 9.00. For the compound `CC1(C)C[C@@H](CNc2nc(-c3cc(NC(=O)[C@@H]4CCCNC4)ncc3Cl)ccc2F)CCO1` (single isomer, unassigned) [Example 216], the pIC50 was 9.00. `O=C(Nc1cc(-c2nc(NCC3CCOCC3)ccc2F)c(Cl)cn1)C1CNCCOC1` (single isomer, unassigned) [Example 222] gave a pIC50 of 7.60. For `O=C(Nc1cc(-c2nc(NCC3CCOCC3)ccc2F)c(Cl)cn1)C1CNCCOC1` (single isomer, unassigned) [Example 223], the pIC50 is 8.40. As to `CC1(C)CO[C@@H](CNc2cccc(-c3cc(NC(=O)[C@@H]4CCCNC4)ncc3Cl)n2)CO1` (single isomer, unassigned) [Example 231], the pIC50 is 9.00.

`CC1(C)CO[C@H](CNc2cccc(-c3cc(NC(=O)[C@@H]4CCCNC4)ncc3Cl)n2)CO1` (single isomer, unassigned) [Example 232]: the pIC50 was 9.00.

In the case of `CC1(C)COC[C@@H](CNc2cccc(-c3cc(NC(=O)[C@@H]4CCCNC4)ncc3Cl)n2)O1` (single isomer, unassigned) [Example 233], the pIC50 was 9.00.

Turning to `CC1(C)COC[C@H](CNc2cccc(-c3cc(NC(=O)[C@@H]4CCCNC4)ncc3Cl)n2)O1` (single isomer, unassigned) [Example 234], the pIC50 is 8.52.

`COC[C@@H]1CC[C@@H](C(=O)Nc2cc(-c3cccc(NCC4CCOCC4)n3)c(Cl)cn2)CN1` (single isomer, unassigned) [Example 235] had a pIC50 of 8.70. For `COC[C@H]1CC[C@H](C(=O)Nc2cc(-c3cccc(NCC4CCOCC4)n3)c(Cl)cn2)CN1` (single isomer, unassigned) [Example 236], the pIC50 was 8.15. The compound `CC[C@@H]1CC[C@@H](C(=O)Nc2cc(-c3cccc(NCC4CCOCC4)n3)c(Cl)cn2)CN1` (single isomer, unassigned) [Example 240] had a pIC50 of 9.00. Regarding `CC[C@H]1CC[C@H](C(=O)Nc2cc(-c3cccc(NCC4CCOCC4)n3)c(Cl)cn2)CN1` (single isomer, unassigned) [Example 241], the pIC50 was 8.05. In the case of `C[C@@H]1CC[C@@H](C(=O)Nc2cc(-c3cccc(NC[C@@H]4CCOC(C)(C)C4)n3)c(Cl)cn2)CN1` (single isomer, unassigned) [Example 242] it was 9.00; in that of `C[C@H]1CC[C@H](C(=O)Nc2cc(-c3cccc(NC[C@@H]4CCOC(C)(C)C4)n3)c(Cl)cn2)CN1` (single isomer, unassigned) [Example 243], 8.70. As for `C[C@@H]1CC[C@@H](C(=O)Nc2cc(-c3cccc(NC[C@H]4CCOC(C)(C)C4)n3)c(Cl)cn2)CN1` (single isomer, unassigned) [Example 244], the pIC50 was 9.00. `C[C@H]1CC[C@H](C(=O)Nc2cc(-c3cccc(NC[C@H]4CCOC(C)(C)C4)n3)c(Cl)cn2)CN1` (single isomer, unassigned) [Example 245] showed a pIC50 of 8.22. `CC[C@@H]1CC[C@@H](C(=O)Nc2cc(-c3ccc(F)c(NCC4CCOCC4)n3)c(Cl)cn2)CN1` (single isomer, unassigned) [Example 256] had a pIC50 of 9.00. With `CC[C@H]1CC[C@H](C(=O)Nc2cc(-c3ccc(F)c(NCC4CCOCC4)n3)c(Cl)cn2)CN1` (single isomer, unassigned) [Example 257], the pIC50 is 8.30.

`CC1(C)COC[C@H](CNc2nc(-c3cc(NC(=O)[C@@H]4CCCNC4)ncc3Cl)ccc2F)O1` (single isomer, unassigned) [Example 262]: the pIC50 was 8.52.

In turn, `CC1(C)COC[C@@H](CNc2nc(-c3cc(NC(=O)[C@@H]4CCCNC4)ncc3Cl)ccc2F)O1` (single isomer, unassigned) [Example 263] gave a pIC50 of 9.00. Consider `CC1(C)CO[C@@H](CNc2nc(-c3cc(NC(=O)[C@@H]4CCCNC4)ncc3Cl)ccc2F)CO1` (single isomer, unassigned) [Example 264], for which the pIC50 was 9.00. Compound `CC1(C)CO[C@H](CNc2nc(-c3cc(NC(=O)[C@@H]4CCCNC4)ncc3Cl)ccc2F)CO1` (single isomer, unassigned) [Example 265] showed a pIC50 of 9.00.

For `O=C(Nc1cc(-c2cccc(NCc3cccc(F)c3)n2)c(Cl)cn1)[C@@H]1CCCNC1` [Example 1, (R)-Piperidine-3-carboxylic acid [5′-chloro-6-(3-fluoro-benzylamino)-[2,4+]bipyridinyl-2′-yl]-amide], the pIC50 is above 8.10.
